# Results from patent US20260015322A1, “DELIVERY OF THERAPEUTIC ALKALOID COMPOUNDS” (priority 2022, published 2026).
# Where two headings read alike, the source gives them in different places. Marks after values point to notes of the source that are not given here.
# Tests used:
# [1] = Plasma Stability Assay (Example A3), rat plasma; format: in vitro ADME; conditions: 10 μM, 37° C., prodrug remaining
# Source text: (§1) The data is represented in the table below.
# [2] = Plasma Stability Assay (Example A3), human plasma; format: in vitro ADME; conditions: 10 μM, 37° C., prodrug remaining
# Source text: as §1
# [3] = Metabolic Stability in Human Hepatocytes; format: in vitro ADME; conditions: cryopreserved human hepatocytes, 5×10^5 viable cells/mL, 37° C.
# Protocol: A 2.5 uL aliquot of 100 μM test compound was incubated with 247.5 uL of cryopreserved hepatocytes suspended in serum-free incubation medium at 5×10^5 viable cells/mL. The mixture was incubated at 37° C. and shaken at 500 rpm for the designated time points (0.5, 15, 30, 60, 90, or 120 min). At each time point, 25 μL aliquot of incubation mixture was transferred to 125 μL of cold acetonitrile containing internal standard, followed by centrifugation for 30 min at 3,220 g. 100 μL of supernatant was mixed with 100 μL of distilled water for analysis by LC-MS/MS. Peak areas were determined from extracted ion chromatograms and in vitro half-life (t1/2) was determined from the concentration vs time regression slope, in vitro t1/2=0.693/k. Conversion of the in vitro t1/2 (in min) into the in vitro intrinsic clearance (in vitro CLint, in μL/min/10^6 cells) is done using: in vitro CLint=kV/N.
# [4] = Hydrolysis Assay - Condition 2 (DI Water); format: physicochemical; conditions: 25° C., 0.5 mM
# Protocol: 50 uL of compound (10 mM) in DMSO was diluted into 950 uL of DI water to a final concentration of 0.5 mM. The hydrolysis kinetics were conducted at 25° C. and measured by LCMS at a certain time interval.
# (§2) The corresponding LCMS chromatogram were recorded and the conversions were calculated by integration of each peak.
# (§3) • 1) LCMS spectra were obtained using Agilent 1200G1956A or SHIMADZU LCMS-2020. • Standard LCMS conditions were as follows (running time 1.55 minutes): • Acidic condition: Mobile Phase A: 0.0375% TFA in water (v/v). Mobile Phase B: 0.01875% TFA in acetonitrile (v/v); Column: Kinetex EVO C18 30*2.1 mm, 5 μm. • Basic condition: Mobile Phase A: 0.025% NH3·H2O in water (v/v). Mobile Phase B: Acetonitrile; Column: Kinetex EVO C18 2.1×30 mm, 5 μm. • 2) Conversion (%)=peak area 1/(peak area 1+peak area 2)*100%, peak area 1 is the integration of hydrolyzed product, peak area 2 is the integration of starting material.
# [5] = Plasma Stability Assay (Example A2), human plasma; format: in vitro ADME; conditions: 37° C., prodrug remaining
# Protocol: (§4) Each test was carried out in duplicate for each time point; 0 min, 15 min, 30 min, 60 min, 120, 240 min. […]
# [6] = Hydrolysis Assay - Condition 1 (SGF); format: physicochemical; conditions: Condition 1: SGF with pepsin pH 1.5, 37° C., 0.5 mM
# Protocol: 50 uL of compound (10 mM) in DMSO was diluted into 950 uL of Simulated Gastric Fluid (SGF) with pepsin (pH 1.5) to a final concentration of 0.5 mM. The hydrolysis kinetics were conducted at 37° C. and measured by LCMS at a certain time interval.
# as §2, §3
# [7] = Plasma Stability Assay (Example A2), mouse plasma; format: in vitro ADME; conditions: Mouse Plasma, 37° C., prodrug remaining
# Protocol: as §4
# [8] = format: in vivo, male C57BL/6 mice; conditions: 323 IV 2 mg/kg, mice; for CL: marked NR (not reportable)
# Protocol: Total fifteen male mice were used in this study with n=3 mice/time point with sparse sampling study design. Animals were administered through intravenous route with solution formulation of 323 at 2 mg/kg dose.
# The extraction procedure for plasma/brain samples and the spiked plasma/brain calibration standards were identical (PMSF Stabilized Plasma and Brain used for Preparation of calibration standards): A 20 μL of study sample plasma/brain or spiked plasma/brain calibration standard was added to individual pre-labeled micro-centrifuge tubes followed by 200 μL of internal standard prepared in acetonitrile (Rosuvastatin+Cetrizine, 50 ng/mL) was added except for blank, where 200 μL of acetonitrile was added. Samples were vortexed for 5 minutes. Samples were centrifuged for 10 minutes at a speed of 4000 rpm at 4° C. Following centrifugation, 200 μL of clear supernatant was transferred in 96 well plates and analyzed using LC-MS/MS.
# Brain samples were diluted (1-part of tissue: 2-part of buffer) and homogenized. The homogenate was submitted for bioanalysis and the concentrations (ng/mL) received were corrected with dilution factor (3×) and the final reported concentrations were represented in ng/g.
# The plasma and brain concentration-time data of 323 and 001 were used for the pharmacokinetic analysis.
structure (smiles),measurement,setting,value
"COc1ccc([C@@]23CCC(OP4(=O)OCCCO4)=C[C@@H]2N(C)CC3)cc1OC [Compound 422, 2-(((3aS,7aS)-3a-(3,4-dimethoxyphenyl)-1-methyl-2,3,3a,4,5,7a-hexahydro-1H-indol-6-yl)oxy)-1,3,2-dioxaphosphinane 2-oxide]",Prodrug (%),[1]; 0 min,100.0%
same,Prodrug (%),[1]; 10 min,>99%
same,Prodrug (%),[1]; 30 min,>99%
same,Prodrug (%),[1]; 60 min,>99%
same,Prodrug (%),[1]; 120 min,91.0%
same,Prodrug (%),[1]; 240 min,76.8%
same,Prodrug (%),[2]; 0 min,100.0%
same,Prodrug (%),[2]; 10 min,89.4%
same,Prodrug (%),[2]; 30 min,73.1%
same,Prodrug (%),[2]; 60 min,62.4%
same,Prodrug (%),[2]; 120 min,39.2%
same,Prodrug (%),[2]; 240 min,19.6%
same,t1/2,[3],366 min
"COc1ccc([C@@]23CCC(OP4(=O)OCC(C)(C)CO4)=C[C@@H]2N(C)CC3)cc1OC [Compound 323, 2-[[(3aS,7aS)-3a-(3,4-dimethoxyphenyl)-1-methyl-3,4,5,7a-tetrahydro-2H-indol-6-yl]oxy]-5,5-dimethyl-1,3,2λ5-dioxaphosphinane 2-oxide]",Conversion (%),[4]; 1 min,0%
same,Conversion (%),[4]; 5 min,0%
same,Conversion (%),[4]; 30 min,0%
same,Conversion (%),[4]; 1 h,0%
same,Conversion (%),[4]; 4 h,0%
same,Conversion (%),[4]; 24 h,0%
same,Prodrug (%),[5]; 0 min,100%
same,Prodrug (%),[5]; 15 min,76.6%
same,Prodrug (%),[5]; 30 min,64.5%
same,Prodrug (%),[5]; 60 min,38.1%
same,Prodrug (%),[5]; 120 min,12.8%
same,Prodrug (%),[5]; 240 min,1.60%
same,Conversion (%),[6]; 1 min,0%
same,Conversion (%),[6]; 5 min,0%
same,Conversion (%),[6]; 30 min,0%
same,Conversion (%),[6]; 1 h,0%
same,Conversion (%),[6]; 4 h,0%
same,Conversion (%),[6]; 24 h,0%
same,Prodrug (%),[1]; 0 min,100.00%
same,Prodrug (%),[1]; 10 min,>99%
same,Prodrug (%),[1]; 30 min,95.5%
same,Prodrug (%),[1]; 60 min,82.0%
same,Prodrug (%),[1]; 120 min,58.8%
same,Prodrug (%),[1]; 240 min,34.0%
same,Prodrug (%),[2]; 0 min,100.00%
same,Prodrug (%),[2]; 10 min,86.9%
same,Prodrug (%),[2]; 30 min,70.8%
same,Prodrug (%),[2]; 60 min,52.7%
same,Prodrug (%),[2]; 120 min,27.0%
same,Prodrug (%),[2]; 240 min,9.3%
same,t1/2,[3],327 min
same,Prodrug (%),[7]; 0 min,100.0%
same,Prodrug (%),[7]; 15 min,>99%
same,Prodrug (%),[7]; 30 min,>99%
same,Prodrug (%),[7]; 60 min,94.1%
same,Prodrug (%),[7]; 120 min,71.9%
same,Prodrug (%),[7]; 240 min,50.3%
same,Brain-Kp,[8]; 323,0.07
same,brain concentrations quantifiable up to,[8]; 323,≤ 0.5 h
same,Brain concentrations (mean),"[8]; 323, 0.08 h",22.15 ng/g
same,Plasma concentrations (mean),"[8]; 323, 0.08 h",332.15 ng/mL
same,Brain concentrations (mean),"[8]; 323, 0.25 h",8.97 ng/g
same,Plasma concentrations (mean),"[8]; 323, 0.25 h",91.59 ng/mL
same,Plasma concentrations (mean),"[8]; 323, 0.5 h",26.34 ng/mL
same,Brain concentrations (mean),"[8]; 323, 0.5 h, average of two values",4.43^d ng/g
same,Plasma concentrations (mean),"[8]; 323, 1 h",4.05 ng/mL
same,Plasma concentrations (mean),"[8]; 323, 2 h, single value, excluded from data analysis",1.03^c ng/mL
same,C0 (back extrapolated concentration),[8]; 323 in Brain,33.89 ng/mL
same,T1/2,[8]; 323 in Brain,10.8 min
same,Vss,[8]; 323 in Brain,61.73 L/kg
same,CL,[8]; 323 in Brain,NR (4350.55) mL/min/kg
same,AUClast,[8]; 323 in Plasma,96.00 ng·h/mL
same,C0 (back extrapolated concentration),[8]; 323 in Plasma,609.01 ng/mL
same,T1/2,[8]; 323 in Plasma,10.2 min
same,Vss,[8]; 323 in Plasma,3.25 L/kg
same,CL,[8]; 323 in Plasma,NR (343.84) mL/min/kg
"COc1ccc([C@@]23CCC(OP4(=O)OC(C)CC(C)O4)=C[C@@H]2N(C)CC3)cc1OC (stereo partly drawn) [Compound 423, 2-(((3aS,7aS)-3a-(3,4-dimethoxyphenyl)-1-methyl-2,3,3a,4,5,7a-hexahydro-1H-indol-6-yl)oxy)-4,6-dimethyl-1,3,2-dioxaphosphinane 2-oxide]",Prodrug (%),[1]; 0 min,100.00%
same,Prodrug (%),[1]; 10 min,>99%
same,Prodrug (%),[1]; 30 min,>99%
same,Prodrug (%),[1]; 60 min,91.05%
same,Prodrug (%),[1]; 120 min,83.29%
same,Prodrug (%),[1]; 240 min,67.32%
same,Prodrug (%),[2]; 0 min,100.00%
same,Prodrug (%),[2]; 10 min,>99%
same,Prodrug (%),[2]; 30 min,>99%
same,Prodrug (%),[2]; 60 min,98.77%
same,Prodrug (%),[2]; 120 min,97.80%
same,Prodrug (%),[2]; 240 min,89.67%
same,t1/2,[3],57 min
"COc1ccc([C@@]23CCC(OP(=O)(O)OCOC(=O)OC(C)C)=C[C@@H]2N(C)CC3)cc1OC [Compound 410, [[(3aS,7aS)-3a-(3,4-dimethoxyphenyl)-1-methyl-3,4,5,7a-tetrahydro-2H-indol-6-yl]oxy-hydroxy-phosphoryl]oxymethyl isopropyl carbonate]",Prodrug (%),[1]; 0 min,100.0%
same,Prodrug (%),[1]; 10 min,63.0%
same,Prodrug (%),[1]; 30 min,25.4%
same,Prodrug (%),[1]; 60 min,7.1%
same,Prodrug (%),[1]; 120 min,0.52%
same,Prodrug (%),[1]; 240 min,0.01%
same,Prodrug (%),[2]; 0 min,100.0%
same,Prodrug (%),[2]; 10 min,96.3%
same,Prodrug (%),[2]; 30 min,98.8%
same,Prodrug (%),[2]; 60 min,92.7%
same,Prodrug (%),[2]; 120 min,88.2%
same,Prodrug (%),[2]; 240 min,75.5%
